Measured values taken from patent US4080466A, “Pharmaceutical compositions containing 4-hydroxyl-1,3-dithiolan-2-ylidene malonates” (Nihon Nohyaku Co., Ltd., priority 1976, dated 1978).

How the values were obtained:
[1] = system: fatty liver induced by ethionine; assay: Effect on Fatty Liver (ethionine); type: in vivo, mouse (dd-strain); details: 250 mg/kg oral, 24 h, 10 animals
Description: But, the fatty liver is grouped into a couple of patterns from the mechanism of lipid accumulation or metabolism of lipoprotein in the liver. Ethionine is a typical example which induces first pattern of fatty liver. It inhibits RNA and protein synthesis and destructs polysome of the liver cell. Fatty liver is induced by inhibition of the protein synthesis and disturbance of lipoprotein secretion.
Usually, fatty liver is closely related to the accumulation of triglyceride in the liver. In the present example, the degree of fatty liver and protective or therapeutic effect against the fatty liver was evaluated by measurement of triglyceride content in the liver. Methods:
The compounds of this invention and methionine were independently dissolved or suspended into olive oil and administered orally to 4 week-old male mouse (dd-strain) at the dose of 250 mg/kg. One hour before it, simultaneously to it, or one hour after it, ethionine dissolved in equimolar NaOH solution was administered intraperitoneally at the dose of 200 mg/kg. Twenty four hours after the administration of ethionine, the animals were sacrificed and triglyceride content in the liver was determined by chromotropic acid method.

[2] = system: glucose metabolism; assay: Effect on glucose metabolism; type: in vivo, mice; details: 250 mg/kg oral, 6 h before glucose 4.0 g/kg
Experimental: The test compounds dissolved in olive oil and administered orally at the dose of 250 mg/kg to the mice. After 6 hours, 4.0 g/kg of glucose was orally administered. The same amount of glucose was given to the control animals. 0.02 ml of blood was taken from caudal vein of the mice at 30, 60, 90 and 120 min. after glucose administration. Blood sugar was measured by the procedure of Somogyi-Nelson. Number of animals used was 5 to 6 mice for each treatment.

[3] = system: acute liver damage induced by carbon tetrachloride; assay: Protective Effect on Acute Liver Damage associated with Centrilobular Necrosis (carbon tetrachloride); type: in vivo, mice (dd-strain); details: 250 mg/kg oral, average of 5 to 6 mice
Description: Carbon tetrachloride (CCl4) administration induces centrilobular necrosis of the liver associated with loss of diphosphopyridine nucleotide, hepatic glycogen, coenzyme A and increase in neutral fat. Release of several enzymes from the hepatocytes, and increase of enzyme activities in the plasma are recognized as the result of the damage of the liver. A suitable means for evaluating the degree of damage induced by CCl4 or the degree of protection afforded by drugs is to study the plasma glutamic-pyruvic transminase (p-GPT) activity.
Methods: The test compounds were dissolved or suspended in olive oil and administered orally at the dose of 250 mg/kg to the mice (Four-week-old male mice-dd strain). After 6 hours, CCl4 was administered orally (0.05 ml/kg as olive oil solution). Animals were killed 24 hours after CCl4 administration, and the liver was grossly observed. The plasma was obtained by centrifugation. Activities of p-GPT were determined by the method of Reitman and Frankel and expressed in Karmen units.
Score for liver damage index was as follows:
4 Clearly observable damage
Each figure indicates average of 5 to 6 mice. Values of p-GPT over 1,000 Karmen unit regarded as 1,000 for calculation of average for convenience.

[4] = system: excretion of biliary salt; assay: Cholagogic Action: effect on the excretion of biliary salt; type: in vivo, rats (SD-JCL strain); details: 200 mg/kg oral; for Excretion of biliary salt: before treatment = 100
Experimental: (§1) Drugs as choleresis are used for patients to improve bile flow. In the present example, the effect of the compound of the invention on the quantities of bile and biliary salt is investigated. Methods:
(§2) The male rats (4 week-aged, SD-JCL strain) were anesthetized with sodium pentobarbital (37.5 mg/kg, intraperitoneal injection). The abdominal cavity was opened through a midline incision. The common bile duct was catheterized with polyethylene tube o.d. 0.8 mm. The catheter was brought to the outside through the abdominal incision would prior to closing. Bile was collected from the catheter continuously with time intervals of one hour. The quantity of bile produced in one hour was determined by weighing and that of biliary salt was determined by enzymatic method (Ikagaku Jikkenho Koza 1B, Biological Constituents II, edited by Tamio YAMAKAWA). The amount of biliary salt was represented in the term of cholic acid equivalent.
(§3) In the representation of the results, the quantities of bile and biliary salt produced in one hour prior to the administration of drug were taken as 100. The compound of this invention was orally administered at the dose of 200 mg/kg. As reference, anethol trithion was used.

[5] = system: alcohol metabolic function of liver; assay: Effect on Concentration of Ethyl alcohol in the Blood; type: in vivo, mice; details: 250 mg/kg oral, 6 h before ethyl alcohol 1,000 mg/kg
Experimental: After 6 hours, 1,000 mg/kg of ethyl alcohol was given orally. Blood was taken in a capillary from caudal vein at the time indicated in the results. The plasma was obtained by centrifugation. The concentration of ethyl alcohol in the plasma was measured by FID type gas liquid chromatography. Five mice were used for each group.

[6] = system: fatty liver induced by carbon tetrachloride; assay: Therapeutic Effect on Fatty Liver (carbon tetrachloride); type: in vivo, rats (SD strain); details: 10 days; for Degree of fatty liver (histopathological examination): one symbol per animal
Experimental: Methods: […] The treated animals were left for 3 days after the last administration to maximize the manifestation of fatty liver. […] It was orally given everyday for 10 days at the dose of 50 or 250 mg/kg. On the 11th day, the animals were sacrificed. The therapeutic effect was evaluated by determining the content of liquid in the liver (triglyceride and total lipid) and examining the histopathological changes. Triglyceride and total lipid were determined colorimetrically by chromotropic acid method and Bragdon's oxidation method, respectively. Indices for the histopathological change is as follows: […]

[7] = system: bile flow; assay: Cholagogic Action: effect on bile flow; type: in vivo, rats (SD-JCL strain); details: 200 mg/kg oral; for Bile flow: before treatment = 100
Experimental: as §1, §2, §3

[8] = system: glucose metabolism; assay: Effect on glucose metabolism; type: in vivo, mice; details: 250 mg/kg oral, 6 h before glucose 4.0 g/kg; 0 min

CCOC(=O)C(C(=O)OCC)=C1SCC(O)S1 (stereo not drawn) [Compound 1, Diethyl 4-hydroxy-1,3-dithiolan-2-ylidene malonate]
Triglyceride ([1]; compound 1 hr after ethionine): 11.8 ± 0.72 mg/g-liver
Triglyceride ([1]; compound 1 hr before ethionine (200 mg/kg i.p.)): 12.3 ± 0.82 mg/g-liver
Triglyceride ([1]; simultaneous with ethionine (0 hr)): 7.1 ± 0.24 mg/g-liver
Blood Sugar ([2]; 30 min): 260 ± 20.4 mg/dL
Blood Sugar ([2]; 60 min): 228 ± 15.2 mg/dL
Blood Sugar ([2]; 90 min): 188 ± 11.3 mg/dL
Blood Sugar ([2]; 120 min): 132 ± 10.4 mg/dL
Liver damage index ([3]; 6 h before CCl4 (0.05 ml/kg oral), score 0 Normal, 2 slight, 4 clear, 6 heavy damage): 0.5
p-GPT (plasma glutamic-pyruvic transaminase activity) ([3]; 6 h before CCl4, 24 h after CCl4, values over 1,000 regarded as 1,000): 66 Karmen units
Excretion of biliary salt ([4]; 1 hour after treatment): 103 ± 6.8
Excretion of biliary salt ([4]; 2 hours after treatment): 102 ± 6.6
Excretion of biliary salt ([4]; 3 hours after treatment): 100 ± 5.8
Excretion of biliary salt ([4]; 4 hours after treatment): 95 ± 7.7
Amount of total excreted biliary salts relative to control ([4]; 5 hours after administration): 1.40 times
Excretion of biliary salt ([4]; 5 hours after treatment): 86 ± 5.2
Concentration of Ethyl alcohol in Plasma ([5]; 0 min): 12±3 ppm
Concentration of Ethyl alcohol in Plasma ([5]; 5 min): 732±102 ppm
Concentration of Ethyl alcohol in Plasma ([5]; 15 min): 710±88 ppm
Concentration of Ethyl alcohol in Plasma ([5]; 30 min): 455±112 ppm
Concentration of Ethyl alcohol in Plasma ([5]; 60 min): 12±7 ppm
Total lipid ([6]; 50 mg/kg oral): 80.2 ± 9.8 mg/g-liver
Triglyceride ([6]; 50 mg/kg oral): 36.2 ± 7.8 mg/g-liver
Degree of fatty liver (histopathological examination) ([6]; 50 mg/kg oral): ± + ± ± ± ± +
Total lipid ([6]; 250 mg/kg oral): 70.3 ± 10.2 mg/g-liver
Triglyceride ([6]; 250 mg/kg oral): 24.9 ± 8.2 mg/g-liver
Degree of fatty liver (histopathological examination) ([6]; 250 mg/kg oral): ± ± - - ± ± ±
Bile flow ([7]; 1 hour after treatment): 110 ± 1.8
Bile flow ([7]; 2 hours after treatment): 115 ± 6.8
Bile flow ([7]; 3 hours after treatment): 105 ± 6.2
Bile flow ([7]; 4 hours after treatment): 98 ± 8.2
Quantity of total excreted bile relative to control ([7]; 5 hours after administration): 1.10 times
Bile flow ([7]; 5 hours after treatment): 80 ± 6.8
Blood Sugar [8]: 138 ± 18.2 mg/dL
